The values below come from patent publication EP0552612A2, “Methods for determining and isolating compounds which bind directly to nucleosolic proteins” (F. HOFFMANN-LA ROCHE AG, priority 1992, dated 1993).

Experiment [1] deals with retinoic acid receptors α, β or γ. Put plainly: Competitive binding with ³H-T-RA to nucleosol of RAR-transfected COS-1 cells. The conditions noted are these: concentrations as high as 1 µM; 5 nM ³H-T-RA, 4°C, 30 minutes. The arrangement: species or system human. The protocol: Competitive binding studies were performed as follows. COS-1 cells were transfected with the cDNAs encoding RARs α, β or γ in the expression vector pSG5 (described in Example 1). The cells were cultured for 72 hours and the nucleosol fraction isolated (14). Nucleosol fractions were incubated (14) at 4°C for 30 minutes with 5 nM ³H-T-RA with various concentrations of unlabeled 13-cis RA. Bound was separated from free radioactivity using PD10 columns as described in Example 1 above.

Experiment [2] deals with T1, RARα (Homo sapiens, UniProt P10276).
T1 sequence (P10276 1-462): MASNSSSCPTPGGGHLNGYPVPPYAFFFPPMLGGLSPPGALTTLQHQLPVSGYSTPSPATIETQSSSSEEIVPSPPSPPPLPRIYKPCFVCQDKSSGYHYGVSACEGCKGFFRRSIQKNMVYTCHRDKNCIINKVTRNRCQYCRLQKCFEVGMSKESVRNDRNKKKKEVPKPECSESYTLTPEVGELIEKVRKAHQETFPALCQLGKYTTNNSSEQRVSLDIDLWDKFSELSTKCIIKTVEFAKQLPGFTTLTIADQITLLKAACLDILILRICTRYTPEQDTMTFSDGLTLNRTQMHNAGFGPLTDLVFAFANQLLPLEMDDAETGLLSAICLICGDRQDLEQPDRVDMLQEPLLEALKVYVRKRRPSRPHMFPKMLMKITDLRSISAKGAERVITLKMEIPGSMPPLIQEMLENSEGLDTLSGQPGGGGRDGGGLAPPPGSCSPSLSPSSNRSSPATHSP
Description: Displacement of radiolabel from nucleosol of COS-1 cells treated in culture with ³H-T-RA. The conditions noted are these: excess unlabeled T-RA (10 µM), 4 hours at 4°C.

The target in experiment [3] is T1, RARα. Description: In vitro binding of ³H-T-RA to nucleosol of transfected COS-1 cells. Conditions: nucleosol from RARα-transfected COS-1 cells; 10 nM ³H-T-RA, 2 hours at 4°C.

As to `CC1=C(/C=C/C(C)=C/C=C/C(C)=C\C(=O)O)C(C)(C)CCC1` [13-cis RA, 13-cis retinoic acid], the “competition with ³H-T-RA for binding” value in experiment [1] is recorded as “minimal competition for binding”.
With `CC1=C(/C=C/C(C)=C/C=C/C(C)=C/C(=O)O)C(C)(C)CCC1` [T-RA, all-trans retinoic acid], the “displacement of bound radiolabel” value at RARα [2] was “displaces radioactivity bound in the RARα nucleosol”.
On to `[3H]C(/C=C(C)/C=C/C1=C(C)CCCC1(C)C)=C([3H])\C(C)=C\C(=O)O` [³H-T-RA], for which the “binding of ³H-T-RA” value at RARα [3] is “considerable binding”.
